Measurements from a melting point compilation (Tetko et al.; mined from patent text by program, amines drawn as free bases though some values may be those of a salt).

SMILES	melting point
Cc1nc(-n2cnn(CCNc3ccc(F)cc3)c2=O)sc1C(=O)NCc1cccnc1	163 to 164 °C
C[C@H](CO)Nc1nc(SCc2ccccc2F)nc2[nH]c(=O)cnc12	203 to 205 °C
CC1CC2=CC(=O)CCC2C2C(Cl)CC3(C)C(=O)CCC3C12 (stereo not given)	215 °C
CCOC(=O)c1nc(Cc2ccccc2[N+](=O)[O-])n[nH]1	135 to 140 °C
N#Cc1ccccc1N1CCN(Cc2cn3cc(Cl)ccc3n2)CC1	167 to 169 °C
CC1CCC(C(C)C)C(C(=O)NC(C)(C)CO)C1 (stereo not given)	123 °C
CN(C1CCN(Cc2ccsc2)CC1)S(=O)(=O)c1ccc(Nc2nccc(Nc3ccc(F)cc3)n2)cc1	173 to 174 °C
O=C(Nc1nccs1)C(CC1CCCC1)c1cccc(C(F)(F)F)c1 (stereo not given)	134 to 136 °C
OCc1cnoc1-c1cc(Cl)ccc1Cl	51 to 52 °C
C#CCOc1cc(Oc2ccc(Cl)cc2)ncn1	100 °C
CCCCCCC(=O)Oc1ccc(-c2ccc(C#N)cc2)cc1	57.7 to 57.9 °C
CC(C)(C)c1cc(Br)c(C(C)(C)C)cc1N	89 to 90 °C
CC(=O)N1CCc2cc(S(=O)(=O)n3c(CCC(=O)O)cc4cc(Cl)ccc43)ccc21	220 to 223 °C
CCOC(=O)Cn1c(=O)c(=O)[nH]c2ccc3ccc(-n4ccc(CNC(=O)c5ccccc5)c4)cc3c21	> 250 °C
CCCc1c(OCc2ccc(/C=C3\SC(=S)NC3=O)cc2)ccc(C(C)=O)c1O	236 to 238 °C
CN(C)C1CCCN(C(=O)c2ccc(NC(=O)Cc3ccccc3Cl)cc2)c2ccccc21 (stereo not given)	187 to 189 °C
CCCOc1c(C)cc(Cl)c2c(=O)c3ccccc3sc12	101 to 103 °C
COc1cccc(Oc2ccccc2C(=O)O)c1	129 to 131 °C
Cc1ccc(C(=O)N2CCOCC2)cc1[N+](=O)[O-]	108 to 110 °C
Cn1c(-c2cc(C(C)(C)C)c(O)c(C(C)(C)C)c2)cnc1S	288 to 289 °C
CN1OCC(C(O)c2cc(C(C)(C)C)c(O)c(C(C)(C)C)c2)C1=O (stereo not given)	137 to 140 °C
Cc1cc(C2=NN(c3nccs3)[C@H](C)Cc3cc4c(cc32)OCO4)ccc1[N+](=O)[O-]	138 to 142 °C
COc1c(O)ccc2cc[nH]c12	83 to 84 °C
O=[N+]([O-])c1ccc(O)c(CNCCC(F)=C(F)F)c1	96 to 98 °C
N#CC1OC(=O)c2cccc(F)c21 (stereo not given)	93 to 96 °C

SMILES	melting point
O=[N+]([O-])c1ccc2c(c1)S(=O)(=O)c1cc([N+](=O)[O-])ccc1-2	282 to 287 °C
Cc1ccc(-c2nc3ccccc3c(=O)[nH]2)cc1	239 to 241 °C
O=[N+]([O-])CC1(SCc2ccccc2)CCC2(CC1)OCCO2	121 to 122 °C
N#CCOC(=O)c1ccc(C(c2ccccc2)(c2ccccc2)c2ccccc2)cn1	173 to 175 °C
CC1=CC(c2ccc(Cl)cc2)C2=C(CCCC2=O)N1 (stereo not given)	184 to 187 °C
Cc1cc(Oc2c(Cl)cc(C(F)(F)F)cc2Cl)nn1C(=O)NCCCl	116 to 118 °C
CC(C)Cn1cnc2c(Cl)nc3ccccc3c21	134 to 136 °C
COc1cc2c(c3oc(C(=O)O)cc(=O)c13)CCC(C)(C)O2	225 to 226 °C
COc1ccc(CC(C(=O)Nc2nc3ccccc3o2)c2ccc(S(C)(=O)=O)cc2)cc1 (stereo not given)	102 to 106 °C
COc1ccc2c(CCC3CCN(Cc4ccccc4)CC3)noc2c1	90.5 to 91.5 °C
COc1cc2c(cc1O)CCN(C(=O)c1cc(OC)c(OC)c(OC)c1)C2	172 to 173 °C
CN(c1cccc2cc(C3=NCC(C)(CCOS(C)(=O)=O)S3)[nH]c12)S(=O)(=O)c1cccs1 (stereo not given)	149 to 150 °C
COc1ccc(/C=C/C(=O)Nc2ccccc2C(=O)NCc2cn(CC(=O)Nc3ccccc3)nn2)cc1OC	189 to 191 °C
CCOC(=O)/C=C/c1ccc(OCOC)c(C)c1OCc1ccc(Cl)cc1Cl	110 to 112 °C
Cc1ccc(-c2nc(Cl)cc(-c3ccccc3)n2)cc1	86 to 87 °C
CCOc1cc(O[Si](C)(C)C(C)(C)C)c(C)c(C(=O)OCc2ccc([N+](=O)[O-])cc2)c1C	75 to 76 °C
Cc1noc(NS(=O)(=O)c2ccccc2-c2ccc(-c3ncco3)cc2CN(C)C(=O)c2cccc(F)c2)c1C	125 to 135 °C
CN(c1ncnc2[nH]ccc12)C1CCCCC1	177 to 180 °C
CCc1ccc(Oc2cnc(S)[nH]c2=O)cc1	> 220 °C
O=C(c1ccc(-c2cccc3ccccc23)cc1Cl)N1Cc2cccn2Cc2ccccc21	115 to 118 °C
N#Cc1c(Cl)nc2ccc([N+](=O)[O-])cc2c1Cl	190 to 192 °C
Oc1cc(Br)nnc1-c1ccc(Cl)cc1	262 to 264 °C
CCOC(=O)c1cc(=O)c2cccc(NC(=O)c3ccc4c(c3)CC(CSCc3ccccc3)O4)c2o1 (stereo not given)	175 to 177 °C
COc1cc([N+](=O)[O-])c(F)cc1Br	74 to 76 °C
CN1C(=O)CC(C(=O)Nc2nccs2)C(=O)c2ccc(Cl)cc21 (stereo not given)	238 to 240 °C

SMILES	melting point
NCC1Cc2cc(-c3ccccc3)cc(-c3ccc(F)cc3F)c2O1 (stereo not given)	159 to 162 °C
Cc1ccc(S(=O)(=O)N2[C@H](CCCCC#N)CC[C@@H]2c2ccc(F)cc2)cc1 (racemic)	79 °C
COC(=O)C(Cl)=C(C)N	68 to 70 °C
CCCC=Cc1c(C(C)C)nc(C(C)C)c(CO)c1-c1cccc(F)c1	117 to 118 °C
CC(C)CC(CO)NC(=O)OCC1c2ccccc2-c2ccccc21 (stereo not given)	131 to 133 °C
CCCc1cc2c(=O)[nH]c(C(=O)OCC)nc2s1	169 to 170 °C
CCOC(=O)c1nc(-c2ccccc2)[nH]c1N=NN(C)C	171 °C
CC(=O)C(C)(N=Nc1ccc(C(O)(C(F)(F)F)C(F)(F)F)cc1)C(N)=O (stereo not given)	148 to 152 °C
CN(C)CCCOc1cc(F)c(-c2c(Cl)nc3nccn3c2NCC(F)(F)F)c(F)c1	52 to 55 °C
C[C@H](CS(C)(=O)=O)Nc1n[nH]c2nc(Oc3ccc(F)cc3F)ncc12	178 to 179 °C
Clc1ccc(-c2[nH]nc(N3CCNCC3)c2-c2ccncc2)cc1	264 to 265 °C
COc1ccc2cc([C@H](C)C(=O)OCC(CO)(CO)[N+](=O)[O-])ccc2c1	124 to 126 °C
CS(=O)(=O)c1ccc(-c2cnn(Cc3ccc(O)cc3)c(=O)c2-c2ccc(F)cc2)cc1	225 to 226 °C
COc1ccc(-c2ccc(-c3nc(-c4ccc(C(F)(F)F)cc4)oc3C)cc2)cc1	167 to 168 °C
CC(C)(C)OC(=O)N1CCc2[nH]c3cccc(Br)c3c2CC1	223 to 225 °C
CNC(=O)c1cc(C(=O)NOCC2CC2)c(Nc2ccc(I)cc2C)c(F)c1F	198 to 202 °C
Cn1c(=O)cc(C(=O)O)c2cc(C(=O)c3ccc(Cl)cc3)ccc21	> 260 °C
COC(=O)CCCc1ccc(C(=O)Cc2ccccc2)cc1	54 to 54.5 °C
CC1Cc2c(Cl)ccc3c(=O)c(C(=O)O)cn1c23 (stereo not given)	288 to 290 °C
Nc1nc2ccccc2c2c1ncn2CCCCNC(=O)c1cccnc1	189 to 190 °C
NN1C(=O)c2ccc(Cl)cc2C1=O	172 to 175 °C
CCCn1nc(C(C)C)cc1Cc1ccc(-c2ccccc2-c2nnn[nH]2)cc1	147 to 149 °C
O=C(CC1CCOCC1)Oc1cc(=O)n(-c2ccccc2)c2ncccc12	169 to 171 °C
CCNc1nc(NCC)nc(NCC)n1	74 °C
Cc1cc([N+](=O)[O-])ccc1NC(=O)n1nc(Oc2cccc(C(F)(F)F)c2)cc1C	165 to 166 °C

SMILES	melting point
CC(C)(C)c1nc(/C=C/c2cn(-c3ccccc3)nc2O)cs1	209 to 211 °C
COc1cccc(P(=O)(c2ccccc2)c2ccccc2)c1I	186 to 189 °C
CS(=O)(=O)c1ccc(-c2sc(COc3cccc(Cl)c3)nc2-c2ccc(F)cc2)cc1	128 to 131 °C
O=C(Oc1ccccc1)N1CCN2C(=O)OC(Cc3ccccc3)(Cc3ccccc3)C2C1 (stereo not given)	140 to 141 °C
CN1CCc2cccc3c4c(n(c23)CC1)CCSC4	123 to 125 °C
O=C(O)c1c(Cc2cc3c(cc2Cl)OCO3)c(-c2ccccc2)nn1CC1CCCC(C(=O)O)C1 (stereo not given)	130 °C
O=C(O)c1ccc(CCCc2ccccc2CCc2ccccc2)cc1	97 to 98 °C
O=S(=O)(c1ccc(Br)cc1)N1CCCC1c1ccc(F)cc1 (racemic)	131 °C
Cc1cccc(C)c1NCC(C)Nc1c(C)cccc1C (stereo not given)	52 to 55 °C
CC(C)(C)c1cc(C=C2Sc3ccccc3N(CP(=O)(O)O)C2=O)cc(C(C)(C)C)c1O	232 to 233 °C
Cc1sc(N2C(=O)c3ccccc3C2=O)c(C(=O)c2ccc(Cl)cc2)c1CN1CCN(c2ccc(F)cc2)CC1	110 to 112 °C
CC#CC(C)Oc1cc(N)c(Cl)cc1C(=O)O (stereo not given)	114 to 116 °C
Cc1nccc(N)c1N	170 to 171 °C
CC(C)OC(=O)N1CCC(NC(=O)N2CCn3c(c(C(N)=O)c(C#N)c3C3CC3)C2)CC1	181 to 182 °C
Cc1cc(NC(=O)C(C)(O)COc2ccc(OCCBr)cc2)ccc1[N+](=O)[O-] (stereo not given)	135 to 138 °C
CC(C)(C)C1=NN(c2ccc(C(=O)O)cc2)C(c2ccccc2Cl)C1 (stereo not given)	229 °C
CNC1CCN(c2c(F)cc3c(=O)c(C(=O)O)cn(C4CC4)c3c2OC)CC1(C)C (stereo not given)	246 to 248 °C
Nc1snc2nc(-c3ccccc3)sc12	176 to 179 °C
C=CCc1ccc(OCC(O)CO)c(OC)c1 (stereo not given)	77 to 79 °C
O=C(O)c1ccc(C(=O)Nc2cc3c4c(c2)CCCC4CCC3)nc1	252 to 253 °C
O=C(O)CCCCCCCCn1nc(-c2ccccc2)c(-c2ccccc2)cc1=O	100 to 103 °C
Oc1c(Br)cc(-c2c3ccccc3c(I)c3sc4ccccc4c23)cc1Br	221 to 222 °C
NC(CC1c2ccccc2Sc2ccccc21)(C(=O)O)c1ccc(C(=O)O)cc1 (stereo not given)	251 °C
Cc1cc(Oc2cc(C)c([N+](=O)[O-])cn2)n[nH]1	136 to 139 °C
CCCCCCCC1(CCCCCCC)c2ccccc2-c2ccc(Br)cc21	32 °C
